Results: patent publication US8044053B2, “Sulfonamide substituted pyrazoline compounds, their preparation and use as CB1 modulators” (Laboratories del Dr. Esteve, S.A., priority 2006, dated 2011)

Tests used:
[1] = target: CB1-receptor (UniProt P20272); assay: In-vitro determination of affinity (binding) to CB1-receptors, radioligand [3H]-CP55940; set-up: IC50; Ki; species or system human or rat; conditions: Pharmacological Methods Part I
Procedure: (§1) I. In-Vitro Determination of Affinity to CB1/CB2-Receptors
(§2) The in-vitro determination of the affinity of the inventive substituted pyrazoline compounds to CB1/CB2-Rezeptors is carried out as described in the publication of Ruth A. Ross, Heather C. Brockie et al., “Agonist-inverse agonist characterisation at CB1 and CB2 cannabinoid receptors of L-759633, L759656 and AM630”, British Journal of Pharmacology, 126, 665-672, (1999), whereby the transfected human CB1 and CB2 receptors of Receptor Biology, Inc. are used. The radioligand used for both receptors is [^3H]-CP55940. The respective parts of the description is hereby incorporated by reference and forms part of the present disclosure.
(§3) Rat Cerebellum CB1 Binding
(§4) Binding affinity to CB1 receptor was evaluated according to a modification of the method described by Govaerts et al., Eur J Pharmac Sci 23, 233-243 (2004). The respective parts of the description is hereby incorporated by reference and forms part of the present disclosure.
(§5) Briefly, cerebellum from male wistar rats (250-300 g) were carefully dissected on ice and homogenates were prepared with Potter-Helveheim in a cold 50 mM Tris-HCl solution containing 5 mM MgCl2, 1 mM EDTA and 0.25 M sucrose, pH 7.4. The suspension was centrifuged at 1,000×g for 5 minutes. The supernatants were collected and centrifuged 50,000×g for 15 minutes. The resulting pellets were then resuspended in Tris-HCl buffer without sucrose, homogenised and incubated for 15 min at 37° C. in an orbital shaker bath and centrifuged again at 50,000×g for 15 min. Pellets were weighted, resuspended in Tris-HCl buffer without sucrose, homogenised with Ultraturrax at 13,500 rpm for 3×5 seconds and alicuoted in 0.9 ml volumes in Eppendorf tubes. Alicuotes were centrifuged at 20,800×g for 5 minutes, supernatants discarded and pellets were frozen at −80° C. until use. Total protein concentration was determined using the Bio-Rad Lowry method based kit. Competitive binding experiments were performed in presence of 1 nM [^3H]-CP 55,940 in siliconised glass tubes containing 100 μg protein/tube resuspended in 1 ml final volume of 50 mM Tris-HCl, 5 mM MgCl2, 1 mM EDTA, 0.5% (w/v) bovine serum albumin, pH 7.4. Compounds were present at various concentrations and the non specific binding was determined in the presence of 10 μM HU-210. After 1 hour incubation at 30° C., the suspension was rapidly filtered through 0.5% PEI pre-treated GF/B fiber filters on a 96-well harvester and washed 3 times with 3 ml ice-cold binding buffer without bovine serum albumin. Radioactivity on filters was measured with Wallac Winspectral 1414 counter by liquid scintillation in 6 ml Ecoscint H (National Diagnostics, U.K.). Assays were made in triplicates.
(§6) Binding data were analysed by non-linear regression with the software GraphPad Prism Version 3.03.
(§7) The binding of the pyrazoline compounds of general formulae I, Ia and Ib to CB1-receptors was determined according to the method described in the section Pharmacological Methods, Part I.

[2] = target: CB1-receptor (UniProt P20272); assay: as above; set-up: % inh; 10^−7 M; compound at 10^−7 M; species or system human or rat; conditions: compound at 10^−7 M
Procedure: as §1, §2, §3, §4, §5, §6, §7

| Structure (SMILES) | IC50 [1] [nM] | % inh. 10^−7 M [2] [%] | Ki [1] [nM] |
| --- | --- | --- | --- |
| O=S(=O)(NCC1=NN(c2ccc(Cl)cc2Cl)C(c2ccc(Cl)cc2)C1)c1cccc(Cl)c1 (centres unmarked) [Example 1, 3-Chloro-N-[5-(4-chloro-phenyl)-1-(2,4-dichloro-phenyl)-4,5-dihydro-1H-pyrazol-3-ylmethyl]-benzenesulfonamide] | 388 | 27.1 |  |
| CC1(C)C2CCC1(CS(=O)(=O)NCC1=NN(c3ccc(Cl)cc3Cl)C(c3ccc(Cl)cc3)C1)C(=O)C2 (centres unmarked) [Example 7, N-[5-(4-Chloro-phenyl)-1-(2,4-dichloro-phenyl)-4,5-dihydro-1H-pyrazol-3-ylmethyl]-C-(7,7-dimethyl-2-oxo-bicyclo[2.2.1]hept-1-yl)-methanesulfonamide] | 184 | 11.9 |  |
| O=S(=O)(NCC1=NN(c2ccc(Cl)cc2Cl)C(c2ccc(Cl)cc2)C1)c1ccsc1 (centres unmarked) [Example 9, Thiophene-3-sulfonic acid [5-(4-chloro-phenyl)-1-(2,4-dichloro-phenyl)-4,5-dihydro-1H-pyrazol-3-ylmethyl]-amide] | 67.7 | 54.3 | 30.6 |
| N#Cc1cccc(S(=O)(=O)NCC2=NN(c3ccc(Cl)cc3Cl)C(c3ccc(Cl)cc3)C2)c1 (centres unmarked) [Example 10, N-((5-(4-chlorophenyl)-1-(2,4-dichlorophenyl)-4,5-dihydro-1H-pyrazol-3-yl)methyl)-3-cyanobenzenesulfonamid] | 70 | 48.6 |  |
| O=S(=O)(Cc1ccccc1)NCC1=NN(c2ccc(Cl)cc2Cl)C(c2ccc(Cl)cc2)C1 (centres unmarked) [Example 12, N-[5-(4-Chloro-phenyl)-1-(2,4-dichloro-phenyl)-4,5-dihydro-1H-pyrazol-3-ylmethyl]-C-phenyl-methanesulfonamide] | 130 | 39.4 |  |
| O=S(=O)(NCC1=NN(c2ccc(Cl)cc2Cl)C(c2ccc(Cl)cc2)C1)c1ccc(OC(F)(F)F)cc1 (centres unmarked) [Example 16, N-[5-(4-Chloro-phenyl)-1-(2,4-dichloro-phenyl)-4,5-dihydro-1H-pyrazol-3-ylmethyl]-4-trifluoromethoxy-benzenesulfonamide] |  | 88.0 |  |
| CCCCS(=O)(=O)NCC1=NN(c2ccc(Cl)cc2Cl)C(c2ccc(Cl)cc2)C1 (centres unmarked) [Example 20, Butane-1-sulfonic acid [5-(4-chloro-phenyl)-1-(2,4-dichloro-phenyl)-4,5-dihydro-1H-pyrazol-3-ylmethyl]-amide] |  | 27.2 |  |
| O=S(=O)(CC1CCCCC1)NCC1=NN(c2ccc(Cl)cc2Cl)C(c2ccc(Cl)cc2)C1 (centres unmarked) [Example 31, N-[5-(4-Chloro-phenyl)-1-(2,4-dichloro-phenyl)-4,5-dihydro-1H-pyrazol-3-ylmethyl]-C-cyclohexyl-methanesulfonamide] |  | 15.9 |  |
| COC(=O)CCc1ccc(S(=O)(=O)NCC2=NN(c3ccc(Cl)cc3Cl)C(c3ccc(Cl)cc3)C2)cc1 (centres unmarked) [Example 35, 3-(4-{[5-(4-Chloro-phenyl)-1-(2,4-dichloro-phenyl)-4,5-dihydro-1H-pyrazol-3-ylmethyl]-sulfamoyl}-phenyl)-propionic acid methyl ester] |  | 8.5 |  |
| COc1cc(C)ccc1S(=O)(=O)NCC1=NN(c2ccc(Cl)cc2Cl)C(c2ccc(Cl)cc2)C1 (centres unmarked) [Example 36, N-[5-(4-Chloro-phenyl)-1-(2,4-dichloro-phenyl)-4,5-dihydro-1H-pyrazol-3-ylmethyl]-2-methoxy-4-methyl-benzenesulfonamide] |  | 26.5 |  |
| O=S(=O)(NCC1=NN(c2ccc(Cl)cc2Cl)C(c2ccc(Cl)cc2)C1)c1csc2ccccc12 (centres unmarked) [Example 37, Benzo[b]thiophene-3-sulfonic acid [5-(4-chloro-phenyl)-1-(2,4-dichloro-phenyl)-4,5-dihydro-1H-pyrazol-3-ylmethyl]-amide] |  | 27.2 |  |
| CC(=O)Nc1ccc(S(=O)(=O)NCC2=NN(c3ccc(Cl)cc3Cl)C(c3ccc(Cl)cc3)C2)cc1Cl (centres unmarked) [Example 41, N-(2-Chloro-4-{[5-(4-chloro-phenyl)-1-(2,4-dichloro-phenyl)-4,5-dihydro-1H-pyrazol-3-ylmethyl]-sulfamoyl}-phenyl)-acetamide] |  | 8.2 |  |
| CCc1ccc(S(=O)(=O)NCC2=NN(c3ccc(Cl)cc3Cl)C(c3ccc(Cl)cc3)C2)cc1 (centres unmarked) [Example 43, N-[5-(4-Chloro-phenyl)-1-(2,4-dichloro-phenyl)-4,5-dihydro-1H-pyrazol-3-ylmethyl]-4-ethyl-benzenesulfonamide] |  | 26.7 |  |
| COc1ccc(C2CC(CNS(=O)(=O)c3cccc(OC)c3)=NN2c2ccc(Cl)cc2Cl)cc1 (centres unmarked) [Example 221, N-[1-(2,4-Dichloro-phenyl)-5-(4-methoxy-phenyl)-4,5-dihydro-1H-pyrazol-3-ylmethyl]-3-methoxy-benzenesulfonamide] | 52.7 |  | 23.5 |
| COc1ccc(C2CC(CNS(=O)(=O)c3cccc(Cl)c3)=NN2c2ccc(Cl)cc2Cl)cc1 (centres unmarked) [Example 225, 3-Chloro-N-[1-(2,4-dichloro-phenyl)-5-(4-methoxy-phenyl)-4,5-dihydro-1H-pyrazol-3-ylmethyl]-benzenesulfonamide] | 90.1 |  | 39.7 |
| CCOc1ccc(C2CC(CNS(=O)(=O)c3cc(C)c(Cl)cc3C)=NN2c2ccc(Cl)cc2Cl)cc1 (centres unmarked) [Example 247, 4-Chloro-N-[1-(2,4-dichloro-phenyl)-5-(4-ethoxy-phenyl)-4,5-dihydro-1H-pyrazol-3-ylmethyl]-2,5-dimethyl-benzenesulfonamide] | 65.5 |  | 27.7 |
| CCOc1ccc(C2CC(CNS(=O)(=O)c3cccc(Cl)c3Cl)=NN2c2ccc(Cl)cc2Cl)cc1 (centres unmarked) [Example 248, 2,3-Dichloro-N-[1-(2,4-dichloro-phenyl)-5-(4-ethoxy-phenyl)-4,5-dihydro-1H-pyrazol-3-ylmethyl]-benzenesulfonamide] | 17.9 |  | 7.6 |
| CCOc1ccc(C2CC(CNS(=O)(=O)c3ccccc3Br)=NN2c2ccc(Cl)cc2Cl)cc1 (centres unmarked) [Example 249, 2-Bromo-N-[1-(2,4-dichloro-phenyl)-5-(4-ethoxy-phenyl)-4,5-dihydro-1H-pyrazol-3-ylmethyl]-benzenesulfonamide] | 5.6 |  | 2.4 |
| CCOc1ccc(C2CC(CNS(=O)(=O)c3cccc(Cl)c3F)=NN2c2ccc(Cl)cc2Cl)cc1 (centres unmarked) [Example 250, 3-Chloro-N-[1-(2,4-dichloro-phenyl)-5-(4-ethoxy-phenyl)-4,5-dihydro-1H-pyrazol-3-ylmethyl]-2-fluoro-benzenesulfonamide] | 39.7 |  | 16.6 |
| CCOc1ccc(C2CC(CNS(=O)(=O)c3cccc(F)c3)=NN2c2ccc(Cl)cc2Cl)cc1 (centres unmarked) [Example 261, N-[1-(2,4-Dichloro-phenyl)-5-(4-ethoxy-phenyl)-4,5-dihydro-1H-pyrazol-3-ylmethyl]-3-fluoro-benzenesulfonamide] | 9.8 |  | 9.8 |
| CCOc1ccc(C2CC(CNS(=O)(=O)c3cccc(C#N)c3)=NN2c2ccc(Cl)cc2Cl)cc1 (centres unmarked) [Example 271, 3-Cyano-N-[1-(2,4-dichloro-phenyl)-5-(4-ethoxy-phenyl)-4,5-dihydro-1H-pyrazol-3-ylmethyl]-benzenesulfonamide] | 10.2 |  | 4.4 |
| CCOc1ccc(C2CC(CNS(=O)(=O)c3c(C)cc(C)cc3C)=NN2c2ccc(Cl)cc2Cl)cc1 (centres unmarked) [Example 272, N-[1-(2,4-Dichloro-phenyl)-5-(4-ethoxy-phenyl)-4,5-dihydro-1H-pyrazol-3-ylmethyl]-2,4,6-trimethyl-benzenesulfonamide] | 13.4 |  | 5.7 |
| Cc1ccc(F)cc1S(=O)(=O)NCC1=NN(c2ccc(Cl)cc2Cl)C(c2ccc(Br)cc2)C1 (centres unmarked) [Example 277, N-[5-(4-Bromo-phenyl)-1-(2,4-dichloro-phenyl)-4,5-dihydro-1H-pyrazol-3-ylmethyl]-5-fluoro-2-methyl-benzenesulfonamide] | 43 |  | 18.2 |
| Cc1ccc(C)c(S(=O)(=O)NCC2=NN(c3ccc(Cl)cc3Cl)C(c3ccc(Br)cc3)C2)c1 (centres unmarked) [Example 280, N-[5-(4-Bromo-phenyl)-1-(2,4-dichloro-phenyl)-4,5-dihydro-1H-pyrazol-3-ylmethyl]-2,5-dimethyl-benzenesulfonamide] | 42 |  | 17.5 |
